Results as given in US11384063B2, “Modulators of estrogen receptor proteolysis and associated methods of use” (Arvinas Operations, Inc., priority 2017, dated 2022).

Experiments:
ERα [1] = target: T1, ERα (Homo sapiens, UniProt P03372); assay: Estrogen receptor-alpha (ERα) degradation assay in MCF-7 cells using western blot; format: cell-based; design: assessed for their activity in degrading ERα in MCF-7 cells via western blot; endogenous in cells; host or cells: MCF7 cells; conditions: ER-alpha degradation, MCF7 cells, 3 days of incubation
T1 sequence (P03372 1-595): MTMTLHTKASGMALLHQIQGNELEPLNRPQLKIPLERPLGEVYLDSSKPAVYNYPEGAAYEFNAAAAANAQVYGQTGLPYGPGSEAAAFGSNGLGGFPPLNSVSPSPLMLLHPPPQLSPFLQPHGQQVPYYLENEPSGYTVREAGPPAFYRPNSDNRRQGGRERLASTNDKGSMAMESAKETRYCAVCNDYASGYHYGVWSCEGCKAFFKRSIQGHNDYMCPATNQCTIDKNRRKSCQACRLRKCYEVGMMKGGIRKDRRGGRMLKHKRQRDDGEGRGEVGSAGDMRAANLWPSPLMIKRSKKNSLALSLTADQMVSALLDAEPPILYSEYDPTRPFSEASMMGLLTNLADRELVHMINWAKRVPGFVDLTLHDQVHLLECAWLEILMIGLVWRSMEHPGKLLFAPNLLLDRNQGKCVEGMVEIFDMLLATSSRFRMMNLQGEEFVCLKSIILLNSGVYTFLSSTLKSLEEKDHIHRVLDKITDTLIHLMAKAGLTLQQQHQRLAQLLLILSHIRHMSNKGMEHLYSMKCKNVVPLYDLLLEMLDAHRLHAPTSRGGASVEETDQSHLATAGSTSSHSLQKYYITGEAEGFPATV
Description: Compounds prepared in this application were also analyzed for the degradation of ERα in MCF7 and T47D cells.
Estrogen Receptor-Alpha (ERα) Degradation Assay in MCF-7 Cells Using Western Blot Method for Table 4.
The exemplary novel ERα degraders were assessed for their activity in degrading ERα in MCF-7 cells via western blot. The assay was carried out in the presence of 10% fetal bovine serum (FBS) or high percentage of human or mouse serum.
MCF7 cells were grown in DMEM/F12 with 10% fetal bovine serum and seeded at 24,000 cells per well in 100 μl into 96-well clear tissue culture plates. The following day, the cells were treated with PROTACs in a […] concentration curve with 100 nM being the top concentration and serial dilutions to make the other concentrations (30 nM, 10 nM, 3 nM, 1 nM, and 0.3 nM). At all concentrations, 0.01% DMSO is the final concentration in the well. The following day, the plates are aspirated, washed with 50 μl of cold PBS. The cells are lysed with 50 μl/well 4° C. Cell Lysis Buffer (Catalog #9803; Cell Signaling Technology, Danvers, Mass.) (20 mM Tris-HCL (pH 7.5), 150 mM NaCl, 1 mM […], 1 mM EGTA, 1% Triton, 2.5 mM sodium pyrophosphate, 1 mM B-glycerophosphate, 1 mM sodium vanadate, 1 ug/ml leupeptin). Lysates were clarified at 16,000×g for 10 minutes, and 2 μg of protein was subjected to SDS-PAGE analysis and followed by immunoblotting according to standard protocols. The antibodies used were ERα (Cell Signaling Technologies Catalog #8644), and Tubulin (Sigma Catalog #T9026; St. Louis, Mo.). Detection reagents were Clarity Western ECL substrate (Bio-Rad Catalog #170-5060; Hercules, Calif.).
Alternatively, MCF7 cells were grown in DMEM/F12 with 10% fetal bovine serum and seeded at 24,000 cells per well in 500 μl in 24-well clear tissue culture plates. The following day, the cells were treated with PROTACs in a 5-point concentration curve (100 nM, 33 nM, 11 nM, 3.7 nM, and 1.2 nM) in the presence of 0.01% DMSO. After 72 hours, the wells are aspirated and washed with 500 μl of PBS. The cells are lysed with 100 μl/well 4° C. Cell Lysis Buffer (Catalog #9803; Cell Signaling Technology, Danvers, M A) (20 mM Tris-HCL (pH 7.5), 150 mM NaCl, 1 mM Na2EDTA, 1 mM EGTA, 1% Triton, 2.5 mM sodium pyrophosphate, 1 mM B-glycerophosphate, 1 mM sodium vanadate, 1 ug/ml leupeptin). Lysates were clarified at 16,000×g for 10 minutes, and 2 μg of protein was subjected to SDS-PAGE analysis and followed by immunoblotting according to standard protocols. The antibodies used were ER(X (Cell Signaling Technologies Catalog #8644), and Tubulin (Sigma Catalog #T9026; St. Louis, Mo.). Detection reagents were Clarity Western ECL substrate (Bio-Rad Catalog #170-5060; Hercules, Calif.).

ERα [2] = target: T1, ERα; assay: ERE luciferase reporter gene assay in T47D-KBluc cells (target engagement); format: cell-based; design: T47D human breast cancer cells stably transfected with estrogen responsive element/promoter/luciferase reporter gene; host or cells: T47D-KBluc cells; conditions: 10% FBS, 24 hours, Table 2 VHL centric PROTACs, read-out: IC50
How it was run: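 PROTACs were tested at 12 concentrations from 300 nM down to 2 pM in 3-fold steps for 24 h on T47D-KBluc cells with a stable ERE-driven luciferase. Medium was RPMI with 10% FBS, measured at 10 pM estrogen. IC50 came from luminescence after lysis, in duplicate.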

DC50 (ERα [1]) [nM]	Dmax (ERα [1]) [%]	IC50 (ERα [2]) [nM]	SMILES
1 to 10	> 75	3.2	Cc1ncsc1-c1ccc([C@H](C)NC(=O)[C@@H]2C[C@@H](O)CN2C(=O)[C@@H](NC(=O)COCCN2CCN(CCOc3ccc(Oc4c(-c5ccc(Br)cc5)sc5cc(O)ccc45)cc3)CC2)C(C)(C)C)cc1 [Compound 153, (2S,4R)-1-[(2S)-2-[2-(2-[4-[2-(4-[[2-(4-bromophenyl)-6-hydroxy-1-benzothiophen-3-yl]oxy]phenoxy)ethyl]piperazin-1-yl]ethoxy)acetamido]-3,3-dimethylbutanoyl]-4-hydroxy-N-[(1S)-1-[4-(4-methyl-1,3-thiazol-5-yl)phenyl]ethyl]pyrrolidine-2-carboxamide]
1 to 10	50 to 75	3.3	Cc1ncsc1-c1ccc(CNC(=O)[C@@H]2C[C@@H](O)CN2C(=O)[C@@H](NC(=O)COCCOC2CN(CCOc3ccc(Oc4c(-c5ccc(F)cc5)sc5cc(O)ccc45)cc3)C2)C(C)(C)C)cc1 [Compound 117, (2S,4R)-1-((S)-2-(2-(2-(1-(2-(4-(2-(4-fluorophenyl)-6-hydroxybenzo[b]thiophen-3-yloxy)phenoxy)ethyl)azetidin-3-yloxy)ethoxy)acetamido)-3,3-dimethylbutanoyl)-4-hydroxy-N-(4-(4-methylthiazol-5-yl)benzyl)pyrrolidine-2-carboxamide]
< 1	> 75	0.1	Cc1ncoc1-c1ccc([C@H](C)NC(=O)[C@@H]2C[C@@H](O)CN2C(=O)[C@@H](NC(=O)COCCOCCOCCOc2ccc(Oc3c(-c4ccccc4)sc4cc(O)ccc34)cc2)C(C)(C)C)cc1 [Compound 138, (2S,4R)-1-((S)-2-tert-butyl-14-(4-(6-hydroxy-2-phenylbenzo[b]thiophen-3-yloxy)phenoxy)-4-oxo-6,9,12-trioxa-3-azatetradecane)-4-hydroxy-N-((S)-1-(4-(4-methyloxazol-5-yl)phenyl)ethyl)pyrrolidine-2-carboxamide]

The remaining lines, values behind:

SMILES	DC50 (ERα [1]) [nM]	Dmax (ERα [1]) [%]	IC50 (ERα [2]) [nM]
Cc1ncsc1-c1ccc(CNC(=O)[C@@H]2C[C@@H](O)CN2C(=O)[C@@H](NC(=O)COc2cccc(CCN(C)CCOc3ccc(Oc4c(-c5ccc(F)cc5)sc5cc(O)ccc45)cc3)c2)C(C)(C)C)cc1 [Compound 139, (2S,4R)-1-[(2S)-2-[2-[3-(2-[[2-(4-[[2-(4-fluorophenyl)-6-hydroxy-1-benzothiophen-3-yl]oxy]phenoxy)ethyl](methyl)amino]ethyl)phenoxy]acetamido]-3,3-dimethylbutanoyl]-4-hydroxy-N-[[4-(4-methyl-1,3-thiazol-5-yl)phenyl]methyl]pyrrolidine-2-carboxamide]	< 1	> 75	0.6
Cc1ncsc1-c1ccc(CNC(=O)[C@@H]2C[C@@H](O)CN2C(=O)[C@@H](NC(=O)COCCOCCn2ccc(-c3ccc(Oc4c(-c5ccc(F)cc5)sc5cc(O)ccc45)cc3)cc2=O)C(C)(C)C)cc1 [Compound 134]	1 to 10	> 75	2.6
C[C@H](NC(=O)[C@@H]1C[C@@H](O)CN1C(=O)[C@@H](NC(=O)Cc1ccc(-c2ccn(CCOc3ccc(Oc4c(-c5ccc(F)cc5)sc5cc(O)ccc45)cc3)n2)cc1)C(C)(C)C)c1ccc(Cl)cc1 [Compound 150, (2S,4R)-N-[(1S)-1-(4-chlorophenyl)ethyl]-1-[(2S)-2-[2-(4-[1-[2-[4-[[2(4-fluorophenyl)-6-hydroxy-1-benzothiophen-3-yl]oxy]phenoxy)ethyl]-1H-pyrazol-3-yl]phenyl)acetamido]-3,3-dimethylbutanoyl]-4-hydroxypyrrolidine-2-carboxamide]	10 to 100	> 75	17
